What was measured:
[1] = test system: human islets; test: Extracellular ROS in culture media, Acridan Lumigen PS-3 assay; format: cell-based; details: media 24 hr after tacrolimus exposure, ± AAGP
Protocol: Frozen samples from all groups are utilized to determine reactive oxygen species (ROS) in the culture media, using the Acridan Lumigen™ PS-3 assay (Amershan ECL Plus kit, Fisher Scientific Inc. Ottawa, ON, Canada) (18). In this assay Acridan Lumigen™ PS-3 is excited by reactive oxygen and nitrogen species (RNS) in the presence of hydrogen peroxide, producing chemiluminescense at 430 nm. Media samples are flash-frozen with liquid nitrogen and stored until the assay is performed. CMRL culture media alone is used as a control, and results are expressed as fold-change increase compared to the control media.

[2] = test system: human islets; test: Intra-islet calcium concentration; format: cell-based; details: Tac−, Tac+AAGP groups
Protocol: Various electrophysiology studies were performed on human islets to elucidate a potential mechanism of action for the AAGP™ by characterizing the CNI-related injury and its avoidance.

[3] = test system: human islets; test: Static GSIS assay (stimulation index); format: cell-based; details: day 3, tacrolimus present
From the text: Similar experimental conditions were recreated (human islets cultured with and without AAGP™ and exposed to tacrolimus) and aliquots of approximately 100 IEQ were collected on day 3 for each corresponding group to undergo s-GSIS assay and simultaneous intracellular insulin content. Islets were then extensively washed to remove tacrolimus and left in culture for 4 more days, when sampling and comparative testing was repeated on day 7.

[4] = test system: human islets transplanted under the kidney capsule; test: Intra-graft apoptosis 24 h post-transplant (cleaved caspase-3, TUNEL); format: in vivo, immunodeficient mice; details: graft 24 h after transplant
Protocol: Apoptosis is measured in all groups using a cleaved caspase-3 spectrophotometric assay and Terminal deoxynucleotidyl transferase dUTP nick end labeling (TUNEL) staining. All determinations are made on normalized groups of 100 IEQ and their corresponding culture media.
Frozen media samples are used to determine cleaved caspase-3 increase using a spectrophotometric assay (EMD Millipore™. Billerica, MA, USA). Again, CMRL culture media alone with additives and no cells is used as a control, and results are expressed as fold-change increase compared to the control media.
For TUNEL staining (DeadEnd™ Apoptosis Detection System, Promega, Madison, WI), islets are fixed in formalin, processed and embedded in paraffin. Co-staining is performed to identify the graft (insulin), apoptotic cells and all nuclei present in the field. Apoptosis is quantified by percentage of positive TUNEL stained area using imageJ software.
Three mice per group underwent nephrectomy and are euthanized 24 hr post-transplant to perform acute determination of proinflammatory cytokines, cleaved capase-3 and TUNEL in the graft area. In all cases the islet graft is excised from the kidney, weighed, flash frozen in liquid nitrogen and stored at −80° C. […]

[5] = test system: human islets transplanted under the kidney capsule; test: Long-term graft function of minimal mass human islet transplant (blood glucose, IPGTT, graft insulin content); format: in vivo, immunodeficient mice
From the text: Eight to 12 week immunodeficient mice (B6.129S7-Rag1^tm1Mom) are obtained from the Jackson Laboratory (Bar Harbor, ME, USA) and housed under specific pathogen-free conditions with access to food and water ad libitum. Animals are cared for according to the guidelines of the Canadian Council on Animal Care, and ethical approval is obtained from the animal welfare committee at the University of Alberta.
Animals are considered diabetic after two consecutive blood glucose measurements are documented≥18 mmol/L.
Ten animals per group received approximately 1,000 IEQ human islets transplanted under the capsule of the left kidney as described previously (19).
Non-fasting blood glucose is monitored in the remaining 7 mice per group three times a week using a portable glucometer (OneTouch Ultra 2, LifeScan, Canada) over 60 days. Normoglycemia is defined when two consecutive readings are below 11.3 mmol/L.
Intraperitoneal Glucose-Tolerance Tests (IPGTT) are conducted 60 days post-transplant to evaluate the capacity of islets to respond to a glucose bolus (3 g/kg) after overnight fast. Blood glucose levels are monitored at baseline (Time 0, 15, 30, 60, 90 and 120 minutes post-injection). All results are compared to blood glucose profiles of naive control mice.
Non-fasting blood glucose levels are recorded for 1 week following nephrectomy. Likewise, the native pancreas is excised at the terminal endpoint, fixed in 10% formalin and analyzed with immunohistochemistry to confirm absence of mouse insulin staining, thus, eliminating residual or regeneration of native pancreatic beta cell function.
Preserved grafts are then processed as previously described and residual insulin content is determined using human insulin ELISA as a measure of surviving islets.

In the case of `C=CC[C@@H]1/C=C(\C)C[C@H](C)C[C@H](OC)[C@H]2O[C@@](O)(C(=O)C(=O)N3CCCC[C@H]3C(=O)O[C@H](/C(C)=C/[C@@H]3CC[C@@H](O)[C@H](OC)C3)[C@H](C)[C@@H](O)CC1=O)[C@H](C)C[C@@H]2OC.O` [Tac+, tacrolimus], the “extracellular ROS (fold-increase vs control media)” value [1] is reported as “substantial increase in ROS”, the “calcium concentration in islets” value [2] is reported as “neither tacrolimus nor AAGP™ affected the calcium concentration” and the “stimulation index (s-GSIS)” value [3] is reported as 1.4. For the same molecule, the “cleaved caspase-3, fold-change increase relative to kidneys of naïve mice” value ([4]; n=3) was 3.14, the “percentage of TUNEL positive cells” value ([4]; control 14.9%) was 53.3% and the “IPGTT AUC” value ([5]; 60 days post-transplant, glucose bolus 3 g/kg, Tac− 92.63, naïve 71.43) was 149.8. The “insulin content of recovered graft” value ([5]; after 60 days of transplant) was 30.86 ng/mL and the “blood glucose over 60 days post-transplant” value ([5]; marginal islet mass model, n=7 per group) was “all mice remained hyperglycemic”.
